Consider nine compounds from US10981875B2, “Quinolone-based compounds with anticancer activity” (Regents of the University of Minnesota, priority 2016, dated 2021).

What is called IC50 is the concentration needed to halve the response being measured. For orientation: GI50 means the concentration giving 50% growth inhibition.

For data set [1], the system named is colon (HT-29) and leukemia (K-562) cell lines. Kind of data set: MTT anti-proliferative assay. Conditions: HT-29 and K-562. The class given is cell-based. How it is done: An MTT assay was performed with 277 and with the following compounds:
[drawing 68] against colon (HT-29) and leukemia (K-562) cell lines to determine their in vitro anti-proliferative activities.
For orientation: Tetrazolium dyes change colour on reduction, which living cells bring about.

In a further data set the target is T1, human topoisomerase I (Homo sapiens, UniProt P11387).
T1 sequence (P11387 1-765): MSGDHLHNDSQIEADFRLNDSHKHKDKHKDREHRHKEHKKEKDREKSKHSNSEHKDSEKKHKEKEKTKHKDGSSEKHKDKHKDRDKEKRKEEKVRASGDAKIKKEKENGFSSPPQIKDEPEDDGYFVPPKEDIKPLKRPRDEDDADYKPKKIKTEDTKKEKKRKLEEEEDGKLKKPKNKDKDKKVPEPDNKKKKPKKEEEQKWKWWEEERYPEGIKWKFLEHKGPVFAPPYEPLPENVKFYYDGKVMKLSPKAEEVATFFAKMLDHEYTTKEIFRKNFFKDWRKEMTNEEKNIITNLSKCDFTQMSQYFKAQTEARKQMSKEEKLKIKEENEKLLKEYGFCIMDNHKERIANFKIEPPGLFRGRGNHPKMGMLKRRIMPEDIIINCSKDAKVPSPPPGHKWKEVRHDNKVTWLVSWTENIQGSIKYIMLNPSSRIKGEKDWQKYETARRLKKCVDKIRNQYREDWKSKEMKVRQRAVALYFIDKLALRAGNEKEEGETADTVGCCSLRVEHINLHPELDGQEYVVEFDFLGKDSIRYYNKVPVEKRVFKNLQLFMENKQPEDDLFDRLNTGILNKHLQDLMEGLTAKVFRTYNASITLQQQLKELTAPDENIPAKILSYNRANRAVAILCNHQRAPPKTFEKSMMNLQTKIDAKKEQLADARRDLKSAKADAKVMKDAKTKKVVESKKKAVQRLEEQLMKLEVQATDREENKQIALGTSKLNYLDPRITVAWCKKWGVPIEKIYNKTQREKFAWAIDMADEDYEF
Nature of the data set: Topoisomerase I relaxation assay (human). It counts as biochemical.

The nature of data set [2]: In vivo toxicity study (maximum tolerated dose). The following applies: daily intraperitoneal, up to 30 mg/kg for 3 weeks. How it is done:
(§1) In vivo toxicity studies were performed to establish the maximum tolerated dose of 217 and 227 in mice. […] A proof of concept efficacy study was also conducted in mice with 217 and 227. Based on the in vitro susceptibility to 217 and 227, and the availability of the established xenograft models, a colon cancer (HT-29) xenograft model was used.

The next data set relates to 60 cancer cell lines. Kind of data set: NCI 60 DTP Human Tumor Cell Line Screen. The class given is cell-based. The following applies: for GI50: Homo sapiens, against the 60 cancer cell lines; for comparison of GI50 and LD50 values with etoposide (NCI's COMPARE program): majority of the 60 cancer cell lines; for mean growth: single dose (10 μM) screening. An excerpt: Both 217 and 227 were submitted to the NCI for the 60 DTP Human Tumor Cell Line Screen.

The target of another data set is E. coli DNA gyrase (Escherichia coli, UniProt P0AES4+P0AES6). Nature of the data set: DNA gyrase supercoiling assay. The class given is biochemical. Conditions: Table 1.
Data set [3] concerns the target T2, human topoisomerase II (Homo sapiens, UniProt P11388). Kind of data set: Topoisomerase II decatenation assay. The class given is biochemical.
In the next data set the target is T3, calf topoisomerase I (Bos taurus, UniProt F1MN93).
T3 sequence (F1MN93 1-767): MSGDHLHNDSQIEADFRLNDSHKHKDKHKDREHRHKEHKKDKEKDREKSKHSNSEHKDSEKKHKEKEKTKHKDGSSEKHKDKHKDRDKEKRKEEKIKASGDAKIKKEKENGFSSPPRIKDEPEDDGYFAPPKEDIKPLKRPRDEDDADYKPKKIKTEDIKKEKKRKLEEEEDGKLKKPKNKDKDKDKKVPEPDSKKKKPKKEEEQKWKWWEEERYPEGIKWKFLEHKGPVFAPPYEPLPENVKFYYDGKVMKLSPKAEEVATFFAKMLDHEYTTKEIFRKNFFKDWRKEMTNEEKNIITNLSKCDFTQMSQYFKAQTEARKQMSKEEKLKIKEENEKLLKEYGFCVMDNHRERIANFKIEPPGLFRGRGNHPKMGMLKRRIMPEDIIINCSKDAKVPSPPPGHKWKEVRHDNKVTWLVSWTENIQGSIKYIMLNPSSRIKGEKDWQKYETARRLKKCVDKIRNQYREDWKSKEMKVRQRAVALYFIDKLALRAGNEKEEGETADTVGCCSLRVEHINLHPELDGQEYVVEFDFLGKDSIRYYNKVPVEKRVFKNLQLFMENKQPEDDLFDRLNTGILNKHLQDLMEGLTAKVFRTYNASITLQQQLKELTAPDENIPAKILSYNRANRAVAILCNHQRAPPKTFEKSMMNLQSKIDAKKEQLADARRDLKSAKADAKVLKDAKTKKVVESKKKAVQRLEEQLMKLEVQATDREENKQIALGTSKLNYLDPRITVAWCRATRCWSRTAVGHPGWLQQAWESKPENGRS
Kind of data set: Topoisomerase I relaxation assay (calf). Conditions: Table 1, calf enzyme, read-out: Topo I (c) IC50 (converted). It counts as biochemical.

The nature of another data set: Aqueous solubility. It counts as physicochemical.
For data set [4], the system named is colon cancer (HT-29) xenograft. Kind of data set: Colon cancer (HT-29) xenograft efficacy study. Conditions: 3-week treatment, FIG. 2. The class given is in vivo, mice. As to the method:
as §1

The target of data set [5] is T2, human topoisomerase II. Nature of the data set: DNA cleavage assay (topoisomerase II poisoning). It counts as biochemical. Conditions: various concentrations; FIG. 1. The text has this: (§2) Topoisomerase poisoning results in the accumulation of covalent topoisomerase-DNA complexes, which can be detected as the generation of nicked and/or linear DNA in DNA cleavage assays. Poisoning of human topoisomerase II generate double-strand breaks that lead to the development of therapy-related acute myeloid leukemia.

In data set [6] the test system is mammalian topoisomerase I. Nature of the data set: Topoisomerase I poisoning (DNA cleavage). It counts as biochemical.
Description: as §2

Where [7] appears, read: Table 2, relaxation assay, read-out: Topo I IC50.
[8] abbreviates: Table 1, human enzyme, relaxation assay, read-out: Topo I (h) IC50.
[9] abbreviates: read-out: IC50 human topoisomerase I in the relaxation assay.
Where [10] appears, read: Table 1, decatenation assay, read-out: Topo II IC50.
Setting [11] is: Table 2, decatenation assay, read-out: Topo II IC50.
Setting [12] is: read-out: IC50 human topoisomerase II in the decatenation assay.

Like-named read-outs stand apart in the source and are kept apart here.

T2 sequence (P11388 whole entry): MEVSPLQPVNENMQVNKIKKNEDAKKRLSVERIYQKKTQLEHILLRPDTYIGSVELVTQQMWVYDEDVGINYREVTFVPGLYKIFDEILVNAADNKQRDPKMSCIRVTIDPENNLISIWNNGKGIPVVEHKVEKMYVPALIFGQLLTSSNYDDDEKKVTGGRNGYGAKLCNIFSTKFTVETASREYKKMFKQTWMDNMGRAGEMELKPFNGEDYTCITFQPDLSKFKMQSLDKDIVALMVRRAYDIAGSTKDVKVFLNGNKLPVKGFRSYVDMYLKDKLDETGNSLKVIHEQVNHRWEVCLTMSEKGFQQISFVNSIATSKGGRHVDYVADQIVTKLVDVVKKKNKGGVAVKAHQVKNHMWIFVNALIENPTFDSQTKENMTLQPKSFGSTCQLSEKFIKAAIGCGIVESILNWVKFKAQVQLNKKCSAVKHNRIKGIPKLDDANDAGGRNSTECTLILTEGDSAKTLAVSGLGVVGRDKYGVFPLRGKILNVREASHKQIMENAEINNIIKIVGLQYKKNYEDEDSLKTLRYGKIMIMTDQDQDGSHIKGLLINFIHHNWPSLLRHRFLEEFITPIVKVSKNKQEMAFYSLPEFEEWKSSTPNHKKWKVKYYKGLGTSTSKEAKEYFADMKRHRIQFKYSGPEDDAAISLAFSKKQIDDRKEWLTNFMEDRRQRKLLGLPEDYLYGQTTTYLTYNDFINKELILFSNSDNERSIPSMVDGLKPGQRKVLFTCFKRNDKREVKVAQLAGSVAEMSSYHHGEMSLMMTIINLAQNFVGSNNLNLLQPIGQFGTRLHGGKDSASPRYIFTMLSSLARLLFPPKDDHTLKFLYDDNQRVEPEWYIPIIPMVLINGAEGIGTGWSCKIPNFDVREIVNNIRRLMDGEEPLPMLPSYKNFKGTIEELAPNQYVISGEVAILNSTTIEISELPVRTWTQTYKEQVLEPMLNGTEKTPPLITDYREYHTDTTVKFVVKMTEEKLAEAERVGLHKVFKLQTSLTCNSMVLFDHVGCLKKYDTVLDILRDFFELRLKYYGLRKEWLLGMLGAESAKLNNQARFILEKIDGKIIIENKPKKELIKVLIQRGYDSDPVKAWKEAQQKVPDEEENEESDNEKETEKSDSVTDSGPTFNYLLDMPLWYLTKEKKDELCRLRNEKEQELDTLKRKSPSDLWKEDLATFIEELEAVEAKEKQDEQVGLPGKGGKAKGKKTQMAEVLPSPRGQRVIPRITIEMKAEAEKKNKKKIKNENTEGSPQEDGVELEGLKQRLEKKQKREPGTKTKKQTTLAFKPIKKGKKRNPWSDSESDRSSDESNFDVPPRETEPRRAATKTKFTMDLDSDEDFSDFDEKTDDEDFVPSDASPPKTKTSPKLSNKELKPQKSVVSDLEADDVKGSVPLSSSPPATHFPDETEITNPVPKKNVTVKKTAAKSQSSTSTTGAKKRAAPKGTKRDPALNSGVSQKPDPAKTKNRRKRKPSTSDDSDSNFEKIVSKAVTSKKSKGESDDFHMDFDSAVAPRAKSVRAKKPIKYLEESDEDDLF
Sequence of E. coli DNA gyrase (P0AES4 whole entry, one chain of several): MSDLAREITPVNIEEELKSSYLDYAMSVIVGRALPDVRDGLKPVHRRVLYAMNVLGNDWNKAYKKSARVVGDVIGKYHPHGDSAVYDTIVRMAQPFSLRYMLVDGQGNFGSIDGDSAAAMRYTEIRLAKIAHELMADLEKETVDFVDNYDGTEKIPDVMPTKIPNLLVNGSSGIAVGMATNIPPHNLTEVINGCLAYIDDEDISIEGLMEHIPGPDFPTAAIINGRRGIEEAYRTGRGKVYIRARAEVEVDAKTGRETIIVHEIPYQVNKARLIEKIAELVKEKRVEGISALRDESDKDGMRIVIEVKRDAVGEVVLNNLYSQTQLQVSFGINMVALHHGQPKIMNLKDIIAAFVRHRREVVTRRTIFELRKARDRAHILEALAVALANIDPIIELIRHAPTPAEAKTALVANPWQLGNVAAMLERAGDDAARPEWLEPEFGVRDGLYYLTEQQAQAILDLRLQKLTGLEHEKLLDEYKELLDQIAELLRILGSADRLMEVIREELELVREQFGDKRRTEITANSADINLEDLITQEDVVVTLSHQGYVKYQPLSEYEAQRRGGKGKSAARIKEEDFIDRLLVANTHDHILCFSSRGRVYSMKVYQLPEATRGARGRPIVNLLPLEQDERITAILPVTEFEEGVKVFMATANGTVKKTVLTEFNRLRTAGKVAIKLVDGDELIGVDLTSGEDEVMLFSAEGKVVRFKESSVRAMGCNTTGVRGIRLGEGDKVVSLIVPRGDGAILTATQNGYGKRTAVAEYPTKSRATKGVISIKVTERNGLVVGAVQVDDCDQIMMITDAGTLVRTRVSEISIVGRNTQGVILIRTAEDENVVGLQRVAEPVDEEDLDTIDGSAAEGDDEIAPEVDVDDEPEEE

Consider `NC[C@@H]1CCN(c2cc3c(cc2F)c(=O)c(C(=O)O)cn3Cc2ccc(-c3ccccc3)cc2)C1` [Compound 065], for which the “anti-proliferative activity, fold higher than that of 217” value in data set [1] is 2-5 fold.
For the compound `COc1c(N2C[C@@H]3CCCN[C@@H]3C2)c(F)cc2c(=O)c(C(=O)O)cn(Cc3ccc(-c4ccccc4)cc3)c12` [Compound 205], the IC50 at human topoisomerase I (setting [7]) came out at 44.4 ± 0.8 µM.
As to `COc1c(N2CCNCC2)c(F)cc2c(=O)c(C(=O)O)cn(Cc3ccc(-c4ccccc4)cc3)c12` [Compound 207], the IC50 at human topoisomerase I (setting [7]) turned out to be 54.2 ± 3.2 µM.
As to `COc1c(N2C[C@@H]3CCCN[C@@H]3C2)c(F)cc2c(=O)c(C(=O)O)cn(Cc3ccc4ccccc4c3)c12` [Compound 213], at human topoisomerase I (setting [7]), the IC50 was 127.9 ± 0.8 µM.
For the compound `NC[C@@H]1CCN(c2cc3c(cc2F)c(=O)n(N)c(=O)n3Cc2ccc3ccccc3c2)C1` [Compound 213a], the IC50 on human topoisomerase I (setting [7]) amounted to 59 ± 2.9 µM.
As for `COc1c(N2CCNCC2)c(F)cc2c(=O)c(C(=O)O)cn(Cc3ccc4ccccc4c3)c12` [Compound 215], the IC50 at human topoisomerase I (setting [7]) stood at 132 ± 3.5 µM.
As to `NC[C@@H]1CCN(c2cc3c(cc2F)c(=O)n(N)c(=O)n3Cc2ccc(-c3ccccc3)cc2)C1` [Compound 215a], the concentration for half-maximal inhibition (IC50) on human topoisomerase I (setting [7]) is 25.9 ± 5.4 µM.
With `COc1c(N2CC[C@@H](CN)C2)c(F)cc2c(=O)c(C(=O)O)cn(Cc3ccc(-c4ccccc4)cc3)c12` [Compound 217, (S)-1-([1,1′-biphenyl]-4-ylmethyl)-7-(3-(aminomethyl)pyrrolidin-1-yl)-6-fluoro-8-methoxy-4-oxo-1,4-dihydroquinoline-3-carboxylic acid], the “effect on animal weight gain” value in data set [2] was “did not have any significant effect on animal weight gain”. Moreover, the tolerability result in data set [2] is reported as “well-tolerated”. Moreover, in the data set with 60 cancer cell lines, the GI50 is 1.9 µM. For the same compound, the “comparison of GI50 and LD50 values with etoposide (NCI's COMPARE program)” value in the data set with 60 cancer cell lines is “significantly more effective than etoposide”. Further, in the data set with 60 cancer cell lines, the mean growth was 40.3%. In addition, the IC50 at E. coli DNA gyrase was 1370 ± 10.1 µM; at human topoisomerase I (setting [8]), 26 ± 0.5 µM; on human topoisomerase I (setting [9]), 26.5 µM; on human topoisomerase II [3] (setting [10]), 128 ± 4.7 µM; on human topoisomerase II [3] (setting [11]), 128 ± 4.7 µM; on human topoisomerase II [3] (setting [12]), 128 µM. The IC50 on calf topoisomerase I is 32.2 µM. Also, the aqueous solubility entry in “Aqueous solubility” is recorded as “limited aqueous solubility”. Besides, the “inhibition of colon cancer proliferation in vivo” value in data set [4] is given as “inhibited the proliferation of colon cancer in vivo as well as fluorouracil (5-FU)”. In addition, the “increase in the amounts of linear DNA” value on human topoisomerase II [5] is reported as “did not detect any significant increase (two-fold or less)”. Besides, the “poisoning of mammalian topoisomerase I” value in [6] was “did not poison mammalian topoisomerase I”.
With `COc1c(N2CC[C@@H](CN)C2)c(F)cc2c(=O)c(C(=O)O)cn(Cc3ccc4ccccc4c3)c12` [Compound 227, (S)-7-(3-(aminomethyl)pyrrolidin-1-yl)-6-fluoro-8-methoxy-1-(naphthalen-2-ylmethyl)-4-oxo-1,4-dihydroquinoline-3-carboxylic acid], the “effect on animal weight gain” value in [2] is on record as “did not have any significant effect on animal weight gain”. For the same compound, the tolerability entry in [2] was “well-tolerated”. In the data set on 60 cancer cell lines, it took 3.1 µM to inhibit growth by half (GI50). For the same compound, the “comparison of GI50 and LD50 values with etoposide (NCI's COMPARE program)” value with 60 cancer cell lines is “significantly more effective than etoposide”. In the data set with 60 cancer cell lines, this compound came in with a mean growth of 44.1%. Besides, the IC50 against E. coli DNA gyrase is greater than 200 µM; on human topoisomerase I (setting [8]), 43.7 ± 0.6 µM; at human topoisomerase I (setting [9]), 43.1 µM; on human topoisomerase II [3] (setting [10]), 165 ± 20.2 µM; at human topoisomerase II [3] (setting [11]) it was 165 ± 20.2 µM; on human topoisomerase II [3] (setting [12]), 165 µM. Further, the IC50 at calf topoisomerase I is 66.6 µM. The aqueous solubility result in the data set “Aqueous solubility” is “limited aqueous solubility”. Further, in [4], the “inhibition of colon cancer proliferation in vivo” value is on record as “exhibited activity but was not as effective as 217”. Besides, the “increase in the amounts of linear DNA” value on human topoisomerase II [5] was “did not detect any significant increase (two-fold or less)”. Further, the “poisoning of mammalian topoisomerase I” value in data set [6] is “did not poison mammalian topoisomerase I”.
